# Data: patent US8710233B2 (Gruenenthal GmbH, priority 2005, dated 2014)
# Assays:
# Type in all cases: cell-based
# vanilloid receptor (VR1) = target: T1, vanilloid receptor (VR1) (Homo sapiens, UniProt Q8NER1); experiment: FLIPR Ca2+ influx assay on CHO K1 cells transfected with the VR1 gene (pharmacological method II); settings: for inhibition at 5 µM / inhibition at 1 µM: CHO-K1, read-out: inhibition in percent, Ki (human) Cap.; for inhibition at 1 µM / inhibition in percent, Ki (human) Cap.: ne = no effect, @ 1 μM
# T1 construct: expressed in transfected cells; host or cells: CHO K1 cells (ECACC), stably transfected
# T1 sequence (Q8NER1 whole entry): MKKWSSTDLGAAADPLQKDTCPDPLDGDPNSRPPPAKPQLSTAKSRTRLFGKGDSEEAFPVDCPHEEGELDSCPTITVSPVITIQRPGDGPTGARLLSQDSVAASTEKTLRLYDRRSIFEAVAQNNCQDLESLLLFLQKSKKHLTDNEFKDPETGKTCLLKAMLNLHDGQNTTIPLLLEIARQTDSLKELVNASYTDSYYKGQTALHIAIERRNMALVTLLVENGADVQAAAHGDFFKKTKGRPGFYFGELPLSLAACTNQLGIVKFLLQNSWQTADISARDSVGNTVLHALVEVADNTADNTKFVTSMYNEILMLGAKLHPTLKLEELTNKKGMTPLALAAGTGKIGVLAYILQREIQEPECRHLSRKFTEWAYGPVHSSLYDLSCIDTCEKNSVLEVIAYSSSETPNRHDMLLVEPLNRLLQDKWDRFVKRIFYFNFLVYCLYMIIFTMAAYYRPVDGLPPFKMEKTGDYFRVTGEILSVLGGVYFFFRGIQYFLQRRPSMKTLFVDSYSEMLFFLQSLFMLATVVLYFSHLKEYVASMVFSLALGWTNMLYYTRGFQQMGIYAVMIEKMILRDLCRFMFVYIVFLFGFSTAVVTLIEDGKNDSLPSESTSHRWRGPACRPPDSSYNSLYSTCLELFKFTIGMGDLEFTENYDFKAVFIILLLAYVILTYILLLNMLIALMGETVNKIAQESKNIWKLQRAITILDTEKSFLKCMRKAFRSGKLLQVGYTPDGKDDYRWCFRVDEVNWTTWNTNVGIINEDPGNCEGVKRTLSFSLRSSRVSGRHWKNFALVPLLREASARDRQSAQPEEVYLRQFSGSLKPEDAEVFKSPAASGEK
# VR1/TRPV1 receptor = VR1/TRPV1 receptor (Homo sapiens, UniProt Q8NER1); experiment: IC50 (human) after pH stimulus
# Sequence of VR1/TRPV1 receptor (Q8NER1 whole entry): as above
# [1] = target: T2, vanilloid receptor 1 (VR1/TRPV1) of the rat species (Rattus norvegicus, UniProt O35433); experiment: FLIPR Ca2+ influx assay on rat dorsal root ganglia cells (pharmacological method I); settings: @ 1 μM, ne = no effect; for inhibition at 1 µM: read-out: inhibition in percent, Ki (rat) Cap.
# T2 construct: The spinal column is removed from decapitated rats; from tissue; host or cells: primary cells dissociated from rat dorsal root ganglia
# T2 sequence (O35433 whole entry): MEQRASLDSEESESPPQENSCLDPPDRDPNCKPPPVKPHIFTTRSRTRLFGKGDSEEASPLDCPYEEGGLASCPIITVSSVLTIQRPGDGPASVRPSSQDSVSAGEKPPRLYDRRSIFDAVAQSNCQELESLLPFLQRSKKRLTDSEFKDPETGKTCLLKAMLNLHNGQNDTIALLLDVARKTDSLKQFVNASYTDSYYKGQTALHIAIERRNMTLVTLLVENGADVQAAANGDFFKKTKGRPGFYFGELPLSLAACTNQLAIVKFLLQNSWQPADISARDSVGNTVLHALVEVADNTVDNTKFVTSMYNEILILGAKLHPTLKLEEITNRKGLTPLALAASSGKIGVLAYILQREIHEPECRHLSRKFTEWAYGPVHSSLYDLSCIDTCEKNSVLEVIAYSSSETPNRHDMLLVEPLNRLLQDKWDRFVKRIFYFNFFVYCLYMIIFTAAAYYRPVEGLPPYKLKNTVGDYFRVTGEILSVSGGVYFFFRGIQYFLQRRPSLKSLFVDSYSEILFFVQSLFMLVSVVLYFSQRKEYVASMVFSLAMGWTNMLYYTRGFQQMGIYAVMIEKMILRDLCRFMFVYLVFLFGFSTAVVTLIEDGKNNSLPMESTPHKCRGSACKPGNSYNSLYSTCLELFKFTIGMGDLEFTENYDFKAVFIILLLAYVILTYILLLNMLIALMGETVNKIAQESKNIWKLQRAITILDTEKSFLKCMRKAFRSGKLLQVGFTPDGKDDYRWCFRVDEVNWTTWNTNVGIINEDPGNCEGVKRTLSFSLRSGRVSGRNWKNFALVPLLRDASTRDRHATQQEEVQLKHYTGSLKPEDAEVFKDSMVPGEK
# Procedure, shortened: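 Primary rat dorsal root ganglion cells loaded with 2 μM Fluo-4, Ca2+ influx read on FLIPR as peak fluorescence. Triplicates, at least 3 independent experiments.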
# [2] = read-out: inhibition in percent, IC50 (human) after pH stimulus
inhibition at 5 µM (vanilloid receptor (VR1)),"inhibition in percent, IC50 (human) after pH stimulus (VR1/TRPV1 receptor; @ 1 μM, ne = no effect)",inhibition at 1 µM (vanilloid receptor (VR1)),Compound,other results
55%,ne @ 1 μM,–,"CC(C(=O)NCc1ccc(C(F)(F)F)nc1OCC1CCNCC1)c1ccc(NS(C)(=O)=O)c(F)c1 (stereo not drawn) [Example 343, 2-(3-fluoro-4-methylsulfonamido-phenyl)-N-[2-(piperidin-4-ylmethoxy)-6-trifluoromethyl-pyridin-3-ylmethyl]-propionamide]",–
78%,–,–,"CC(C(=O)NCc1ccc(C(F)(F)F)nc1-c1ccc2[nH]ccc2c1)c1ccc(NS(C)(=O)=O)c(F)c1 (stereo not drawn) [Example 276, 2-(3-fluoro-4-methylsulfonamido-phenyl)-N-[2-(1H-indol-5-yl)-6-trifluoromethyl-pyridin-3-ylmethyl]-propionamide]","inhibition at 0.1 µM (VR1/TRPV1 receptor; @ 0.1 μM, read-out: inhibition in percent, IC50 (human) after pH stimulus): 11%; inhibition at 1 µM (VR1/TRPV1 receptor; @ 1 μM, ne = no effect, read-out: inhibition in percent, IC50 (human) after pH stimulus): 11%; inhibition at 5 µM (VR1/TRPV1 receptor; [2]): 43%"
34%,ne @ 1 μM,–,"CC(C(=O)NCc1ccc(C(F)(F)F)nc1OC1CCNCC1)c1ccc(NS(C)(=O)=O)c(F)c1 (stereo not drawn) [Example 344, 2-(3-fluoro-4-methylsulfonamido-phenyl)-N-[2-(piperidin-4-yloxy)-6-trifluoromethyl-pyridin-3-ylmethyl]-propionamide]",–
46%,–,–,"CC(C(=O)NCc1ccc(C(F)(F)F)nc1N1CCS(=O)(=O)CC1)c1ccc(NS(C)(=O)=O)c(F)c1 (stereo not drawn) [Example 314, N-[2-(1,1-dioxo-1l6-thiomorpholin-4-yl)-6-trifluoromethyl-pyridin-3-ylmethyl]-2-(3-fluoro-4-methylsulfonamido-phenyl)-propionamide]","inhibition at 5 µM (VR1/TRPV1 receptor; [2]): 14%; inhibition at 10 µM (VR1/TRPV1 receptor; @ 10 μM, read-out: inhibition in percent, IC50 (human) after pH stimulus): 31%"
–,ne @ 1 μM,–,"CC(C(=O)NCc1ccc(C(F)(F)F)nc1N1CCC(O)CC1)c1ccc(NS(C)(=O)=O)c(F)c1 (stereo not drawn) [Example 269, 2-(3-fluoro-4-methylsulfonamido-phenyl)-N-(4-hydroxy-6′-trifluoromethyl-3,4,5,6-tetrahydro-2H-[1,2′]bipyridinyl-3′-ylmethyl)-propionamide]","inhibition in percent, Ki (rat) Cap. [1]: ne @ 1 μM; inhibition in percent, Ki (human) Cap. (vanilloid receptor (VR1)): ne @ 1 μM"

# More lines, now with the values behind:
Compound,inhibition at 5 µM (vanilloid receptor (VR1)),"inhibition in percent, IC50 (human) after pH stimulus (VR1/TRPV1 receptor; @ 1 μM, ne = no effect)",inhibition at 1 µM (vanilloid receptor (VR1)),other results
CC1CCN(c2nc(C(F)(F)F)ccc2CNC(=O)C(C)c2ccc(NS(=O)(=O)C(F)(F)F)c(F)c2)CC1 (stereo not drawn) [Compound 312],–,–,7%,–
"CC(C(=O)NCc1ncc(C(F)(F)F)cc1N1CCCC1)c1ccc(NS(C)(=O)=O)c(F)c1 (stereo not drawn) [Example 78, 2-(3-Fluor-4-(methylsulfonamido)phenyl)-N-((3-(pyrrolidin-1-yl)-5-(trifluoromethyl)pyridin-2-yl)methyl)propanamide]",–,–,–,"inhibition in percent, Ki (rat) Cap. [1]: 19% @ 1 μM; inhibition in percent, Ki (human) Cap. (vanilloid receptor (VR1)): 15% @ 1 μM; inhibition in percent, IC50 (human) after pH stimulus (VR1/TRPV1 receptor; @ 10 μM): 36% @ 10 μM"
"CC(C(=O)NCc1c(CO)cc(C(C)(C)C)nc1OCc1ccccc1)c1ccc(NS(C)(=O)=O)c(F)c1 (stereo not drawn) [Example 223, N-(2-benzyloxy-6-tert-butyl-4-hydroxymethyl-pyridin-3-ylmethyl)-2-(3-fluoro-4-methylsulfonamido-phenyl)-propionamide]",–,ne @ 1 μM,38%,inhibition at 1 µM [1]: 53%
CC(C(=O)NCc1ccc(C(F)(F)F)nc1OC1CCNCC1)c1ccc(NS(C)(=O)=O)c(F)c1 (stereo not drawn) [Compound 344],–,–,3%,–
CC(C(=O)NCc1ccc(C(F)(F)F)nc1N1CCC(N2CCCCC2)CC1)c1ccc(NS(C)(=O)=O)c(F)c1 (stereo not drawn) [Compound 164],–,–,20%,inhibition at 1 µM [1]: 1.5%
CC(C(=O)NCc1ccc(C(F)(F)F)nc1OCC1CCNCC1)c1ccc(NS(C)(=O)=O)c(F)c1 (stereo not drawn) [Compound 343],–,–,8%,–
CC(C(=O)NCc1ccc(C(F)(F)F)nc1N1CCN(c2ccncc2)CC1)c1ccc(NS(C)(=O)=O)c(F)c1 (stereo not drawn) [Compound 176],–,–,7.2%,inhibition at 1 µM [1]: 8%
